From US20110224300A1, “USE OF POTASSIUM 2-(a- HYDROXYPENTYL) BENZOATE IN THE MANUFACTURE OF MEDICAMENTS FOR PREVENTING AND/OR TREATING SENILE [sequence]” (Institute of Mataria Medica, Chinese Academy of Me, priority 2008, published 2011)

Key:
[1] = tested on: cortex and hippocampus neurons of 2-VO rats; experiment: HE staining, neuronal morphology in 2-VO rats; format: in vivo, rat; conditions: 21 days
Protocol: (§1) Four rats in each group were anesthetized with sodium pentobarbital (100 mg/kg, intraperitoneal injection), and perfused transcardially with cold saline, followed by 300 ml of 4% paraformaldehyde in 0.01 M phosphate buffer (pH 7.4). After these procedures, the brains were removed and stored in the 0.01 M phosphate buffer (pH 7.4) with 4% paraformaldehyde and 30% sucrose at 4° C. until fully equilibrated. Then they were postfixed at 4° C., dehydrated and embedded in paraffin blocks. Coronal sections of 8 μm were stained with hematoxylin-eosin and Klüver-Barrera.
HE staining in the cytoplasm and nucleus in different colors, you can clearly see the general shape of the cells. […] Above that, dl-PHPB could protect and care the damage of cortex and hippocampus neurons caused by chronic cerebral hypoperfusion.

[2] = tested on: corpus callosum and optic tract of 2-VO rats; experiment: Klüver-Barrera staining in 2-VO rats; format: in vivo, rat; conditions: for improvement of pathological damage of the corpus callosum, K-B staining: 21 days, rank among doses
Protocol: as §1
KB staining could reflect the morphological changes of neuronal myelin sheath, and the morphological changes of nerve fibers.

[3] = tested on: BDNF; experiment: BDNF immunohistochemistry in 2-VO rats; format: in vivo, rat; conditions: for BDNF expression in hippocampus CA1, CA2, CA3 area: 21 days
Protocol: The method for tissue fixation was described above. Serial coronal sections (40 μm) of the brains were cut through the dorsal hippocampus on a freezing microtome and collected in 6-well plates containing 0.01 M PBS. The detection of GFAP and BDNF immunoreactivity was performed using a conventional avidin-biotin-immunoperoxidease technique.
For quantitative analysis, one from every five samples in a continuous series of hippocampal or cortical tissue sections was taken, and was processed immunohistochemically. Thus, three slides were taken from each rat, and were read under an objective (×1.6) microscope. The total area of positively stained neurons was counted with Image-pro Plus 5.0 software.

[4] = tested on: Aβ(25-35)-induced dementia rats; experiment: Morris water maze in Aβ(25-35)-induced dementia rats; format: in vivo, Male Wistar rats; conditions: Aβ(25-35) rats; for percentage of time in the target quadrant (probe test): vehicle 21.6±1.6%
Protocol: Subjects were tested in a Morris water maze. This test is based on a standardized assessment of spatial learning ability. The water maze apparatus consisted of a circular, stainless pool (120 cm in diameter, 60 cm in height). It was placed in a dimly lit, sound-proof test room. Multiple distant cues around the room (window, cabinets, furniture) were kept in the same location throughout the experiments. The water was filled to a depth of 40 cm at 25±1° C. and was made opaque by adding milk powder to prevent visualization of the platform. A transparent platform (10 cm diameter) was put 1.5 cm below the surface of the water. The tank was divided into four quadrants with the platform in a fixed position in one quadrant. The subjects were placed into the maze facing the pool wall and were allowed two trials per day, 60 s per trial, to find the hidden platform. If the subject found the platform within the 60 s, it was given a 10-s rest period on the platform between trials. If the pedestal was not located within the time allotted, the subject was placed on to the platform and allowed 10 s until the next trial. The escape latency (time to reach the platform) was used to assess acquisition of the water maze task. Sessions were repeated for five consecutive days. On the sixth day, the platform was removed and the rat was allowed to search for the platform for 60 s (probe test). The time in the platform quadrant and latency time to cross platform location were recorded to measure the spatial learning ability without the influence of chance encounters with the platform. The Morris water maze sessions were recorded with a video camera for offline analysis.
Aβ(25-35)-induced dementia model in 10 months of Male Wistar rats with 600 g B.W. was created by slow injection of 15 nmol (volume of 50) aggregation of Aβ (25-35). Sham-operation group was only injected with PBS (volume of 50). After operation, the animals were injected penicillin 200 000 units for 4 days by intraperitoneal injection.
Rats were divided into four experimental groups randomly (10 rats/each group): one sham-operated group, one vehicle control group, and two dl-PHPB-treated groups (39, and 129 mg/kg). At 1 days after operation, drugs and vehicle were administered orally to rats for 14 days (one time/each day). The spatial learning and memory abilities of rats were detected by Morris water maze in the 9-12 days after operation. The testing of Morris water was commenced at 40 min after drugs treated. The biochemical and pathology assays conducted later (in 24 h) after behavioral testing.
The navigation test was performed in 9-12 days after icy Aβ (25-35) by the same method as the before. On the thirteenth day, the platform was removed and the rat was allowed to search for the platform for 30 s (probe test). The time in the platform quadrant and latency time to cross platform location were recorded to measure the spatial learning ability without the influence of chance encounters with the platform.

[5] = tested on: SOD; experiment: SOD activity of brain tissues from SAMP8 mice; format: in vivo; conditions: 35 days; for SOD activity in the hippocampus: untreated SAMP8 279.4±65.7, P<0.05
Protocol: (§2) The biochemical assays were conducted later (in 24 h) after behavioral testing. Eight rats in each group were anesthetized with ether and sacrificed. The brains were quickly removed and cleaned with ice-cold saline. Then the parietal cortex and hippocampus were isolated. For biochemical analysis, the tissues were weighed and homogenized in ice-cold saline with the proportion of 1:9 (w/v). Homogenization (IKA, Germany) was carried out for 2 min in an ice bath. After the homogenates were centrifuged at 2,000×g for 10 min at 4° C. (Sigma, Germany), the supernatant was used for analytical procedures. The levels of choline acetyltransferase (ChAT) SOD, and MDA activities were determined with commercial colorimetric assay kits (Nanjing Jiancheng Bioengineering Institute, China). The content of protein in the supernatant was determined by Bradford method using BSA as standard.
(§3) SAMP8 were divided into three experimental groups randomly: one vehicle control group, and two dl-PHPB-treated groups (50, and 160 mg/kg). Drugs and vehicle were administered orally to SAMP8 mice for 35 days (one time/each day). The spatial learning and memory abilities of SAMP8 mice were detected by Morris water maze and DTT-2 jumping apparatus in 31-35 days. The testing was commenced at 40 min after drugs treated. The biochemical and pathology assays conducted later (in 24 h) after behavioral testing.
(§4) The methods as described previously.

[6] = tested on: Mitochondrial ATPase; experiment: Cortex mitochondrial ATPase activity in SAMP8 mice; format: in vivo; conditions: 160 mg/kg oral, 35 days, vehicle 8.58±0.21, significant
Protocol: as §2
as §3, with “testing. […]” for “testing.”

[7] = tested on: AChE; experiment: AChE activity of hippocampus from SAMP8 mice; format: in vivo; conditions: treatment up to 35 days, tendency only
Protocol: as §3, §4

CCCCC(O)c1ccccc1C(=O)[O-].[K+] (racemic) [dl-PHPB, Potassium 2-(1-Hydroxypentyl)-benzoate]
neuronal morphology, HE staining ([1]; dl-PHPB 13 mg/kg): only minor improve the abnormal shape of cortical neurons | neuronal morphology, HE staining ([1]; dl-PHPB 39 mg/kg): significantly improve the cortex, hippocampus area CA1 and CA3 neurons form | neuronal morphology, HE staining ([1]; dl-PHPB 129 mg/kg): improve the cortex and hippocampus CA1 area neuronal morphologic abnormalities | improvement of pathological damage of the corpus callosum, K-B staining ([2]; dl-PHPB 13 mg/kg): the weakest | pathological changes of the optic tract, K-B staining ([2]; dl-PHPB 39 mg/kg): strong role | improvement of pathological damage of the corpus callosum, K-B staining ([2]; dl-PHPB 39 mg/kg): strongest | pathological changes of the optic tract, K-B staining ([2]; dose not specified): a certain improvement | BDNF expression in hippocampus CA1, CA2, CA3 area ([3]; dl-PHPB 39 mg/kg, P<0.05 or P<0.01): significantly increased BDNF expression | BDNF expression in hippocampus CA1, CA2, CA3 area ([3]; dl-PHPB 129 mg/kg): only a trend without statistical significance | expression of BDNF in the cortex (staining intensity) ([3]; strongest at 39 mg/kg, succeeded by 129 mg/kg and 13 mg/kg): increase the expression of BDNF | escape latency ([4]; 39 mg/kg orally, 2nd day of training, P<0.05): shorter than sham group | escape latency ([4]; 39 mg/kg orally, 3rd to 4th days): shorter than vehicle group | percentage of time in the target quadrant (probe test) ([4]; 39 mg/kg orally, trend only): 24.6±3.0% | escape latency ([4]; 129 mg/kg orally, 3rd to 4th days, P<0.05 or P<0.01): significantly shorter than vehicle group | percentage of time in the target quadrant (probe test) ([4]; 129 mg/kg orally, sham 32.8±4.0%, p<0.05 vs vehicle): 30.2±2.5% | time of the first cross platform (probe test) ([4]; dose not specified): shorten trend | SOD activity in the hippocampus ([5]; 50 mg/kg oral): 156.2±7.8 U/mg protein | SOD activity in the hippocampus ([5]; 160 mg/kg oral): 158.7±11.4 U/mg protein | SOD activity in the cortex ([5]; cortex): did not significantly improve SOD activity | ATPase activity (cortex mitochondria) [6]: 9.82±0.51 U/mg protein | AChE activity in the hippocampus [7]: might decrease AChE activity
